This passage reports inhibition results from article PMC9045277, “Quercetin Reduces the Virulence of S. aureus by Targeting ClpP to Protect Mice from MRSA-Induced Lethal Pneumonia” (Microbiology Spectrum, 2022).

Molecules are shown by their SMILES.

Broadly, the inhibition is the relative decrease from the control value, in per cent.
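Note: ClpP peptidase activity measured as fluorescence (ex 360 nm, em 465 nm) from cleavage of Suc-LY-AMC substrate at 100 µM, 30 min at 32°C.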

The target of the assay is T1, ClpP (Staphylococcus aureus, UniProt Q2G036).
T1 construct: pET28a-clpP, purified from E. coli BL21(DE3)
T1 sequence (Q2G036 whole entry): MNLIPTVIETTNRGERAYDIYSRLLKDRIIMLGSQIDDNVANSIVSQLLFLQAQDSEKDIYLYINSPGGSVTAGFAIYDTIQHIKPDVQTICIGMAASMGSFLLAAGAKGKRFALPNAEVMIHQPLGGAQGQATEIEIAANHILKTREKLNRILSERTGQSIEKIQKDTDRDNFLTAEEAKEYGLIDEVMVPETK
Kind of assay: biochemical. Particulars: read-out: Relative inhibition rate (%).
Procedure: This property was exploited to screen the available laboratory library of small molecules for ClpP inhibitors. First, 10 μM ClpP and 64 μg/mL of the small molecule compound were added to a black opaque 96-well plate containing 100 μL of ClpP buffer (100 mM HEPES,100 mM NaCl) and incubated for 1 h at room temperature. Afterward, 100 μM Suc-LeuTyr-AMC (Cat number S1153, Sigma-Aldrich, St. Louis, MO, USA) was added to 96-well plates and incubated for 30 min at 32°C. Finally, the fluorescence values were detected by Infinite M200 (360 nm excitation/465 nm emission). […] Since the fluorescent substrate Suc-LY-AMC can be used to detect the activity of ClpP protein, we screened a library of natural products available in our laboratory.
As for `COc1ccc([C@@H]2CC(=O)c3c(O)cc(O[C@@H]4O[C@H](CO[C@@H]5O[C@@H](C)[C@H](O)[C@@H](O)[C@H]5O)[C@@H](O)[C@H](O)[C@H]4O)cc3O2)cc1` [Didymin], the inhibition at 64 µg/mL came out at 31.2 ± 0.59%.

`COc1cc2c(cc1O)C[C@H]1c3cc(O)c(OC)cc3CC[N+]1(C)C2` (some centres unmarked) [Phellodendrine chloride]: the inhibition at 64 µg/mL was 10.2 ± 2.67%.

As for `COc1cc(-c2oc3cc(O)cc(O)c3c(=O)c2O[C@@H]2O[C@H](CO[C@@H]3O[C@@H](C)[C@H](O)[C@@H](O)[C@H]3O)[C@@H](O)[C@H](O)[C@H]2O[C@@H]2O[C@@H](C)[C@H](O)[C@@H](O)[C@H]2O)ccc1O` [Typhaneoside], the inhibition at 64 µg/mL was 29.7 ± 0.72%.

As for `COc1cc(O)c2c(=O)cc(-c3ccc(O)cc3)oc2c1` [Genkwanin], the inhibition at 64 µg/mL was 13.7 ± 0.58%.

Consider `Oc1ccc2c(c1)OC[C@]1(O)Cc3cc(O)c(O)cc3[C@H]21` [Brazilin], for which the inhibition at 64 µg/mL came out at 47.2 ± 2.57%.

With `O=c1c(O)c(-c2ccc(O)cc2)oc2cc(O)cc(O)c12` [Kaempferol], the inhibition at 64 µg/mL worked out at 44 ± 2.75%.

`CC1(C)CCC2(CO)C(=C3C=CC4C5(C)CCC(OC6OC(COC7OC(CO)C(O)C(O)C7O)C(OC7OC(CO)C(O)C(O)C7O)C(O)C6O)CC5C(C)(CO)CC4(C)C3(C)CC2O)C1` (centres unmarked) [Clinodiside A]: the inhibition at 64 µg/mL was determined as 16 ± 2.78%.

On to `COc1ccc(-c2oc3c(CC=C(C)C)c(O[C@@H]4O[C@H](CO)[C@@H](O)[C@H](O)[C@H]4O)cc(O)c3c(=O)c2O[C@@H]2O[C@@H](C)[C@H](O)[C@@H](O)[C@H]2O)cc1` [Icariin], for which the inhibition at 64 µg/mL came to 34.6 ± 1.54%.

With `COc1cc([C@@H]2Oc3c(O)cc([C@H]4Oc5cc(O)cc(O)c5C(=O)[C@@H]4O)cc3[C@H]2CO)ccc1O` [Silicristin], the inhibition at 64 µg/mL was found to be 9.3 ± 0.83%.

For the compound `CC(C)=CCc1cc2c(cc1O)O[C@H](c1ccc(O)cc1)CC2=O` [Bavachin], the inhibition at 64 µg/mL is 21.7 ± 1.75%.

Turning to `COc1ccc(-c2cc(=O)c3c(O)cc(OC)cc3o2)cc1` [Apigenin 7,4'-dimethyl ether], the inhibition at 64 µg/mL was found to be 18.4 ± 1.24%.

In the case of `O=c1c(-c2ccccc2)coc2ccccc12` [Isoflavone], the inhibition at 64 µg/mL was determined as 20.1 ± 0.73%.

`COc1ccc(-c2oc3c(CC=C(C)C)c(O)cc(O)c3c(=O)c2O[C@@H]2O[C@@H](C)[C@H](O)[C@@H](O)[C@H]2O)cc1` [Baohuoside I]: the inhibition at 64 µg/mL is 37.1 ± 0.59%.

For the compound `COc1ccc(C(C)=O)c(O)c1` [Paeonol], the inhibition at 64 µg/mL turned out to be 26.7 ± 4.31%.

Consider `COC(=O)C1=CO[C@@H](O[C@@H]2O[C@H](CO)[C@@H](O)[C@H](O)[C@H]2O)[C@@H]2[C@@H](C)[C@@H](O)C[C@H]12` [Loganin], for which the inhibition at 64 µg/mL worked out at 14.7 ± 3.56%.

On to `O=C1c2ccccc2C(=O)c2c(O)c(O)cc(O)c21` [Purpurin], for which the inhibition at 64 µg/mL was 11.6 ± 2.51%.

For the compound `CC1=CC(=O)CC(C)(C)[C@@]1(O)/C=C/C(C)=C\C(=O)O` [Abscisic acid], the inhibition at 64 µg/mL was 0.8 ± 3.42%.

Regarding `COc1ccc(-c2cc(=O)c3c(O)c(OC)c(O)c(OC)c3o2)cc1` [Lysionotin], the inhibition at 64 µg/mL was 59.1 ± 1.55%.

`COc1c(O)cc(O)c2c(=O)cc(-c3ccccc3)oc12` [Wogonin]: the inhibition at 64 µg/mL was 35.4 ± 2.11%.

Turning to `O=C1C[C@@H](c2ccc(O[C@@H]3O[C@H](CO)[C@@H](O)[C@H](O)[C@H]3O)cc2)Oc2cc(O)ccc21` [Liquiritin], the inhibition at 64 µg/mL was 3.2 ± 0.97%.

As to `CC(C)=CC[C@@H](O)C1=CC(=O)c2c(O)ccc(O)c2C1=O` [Shikonin], the inhibition at 64 µg/mL was determined as 13.4 ± 1.54%.

On to `O=C(/C=C/c1ccc(O)c(O)c1)O[C@@H]1C[C@](O)(C(=O)O)C[C@@H](O)[C@H]1O` [Chlorogenic acid], for which the inhibition at 64 µg/mL was 10.4 ± 1.12%.

On to `COc1ccc(-c2cc(=O)c3c(O)cc(O)cc3o2)cc1O` [Diosmetin], for which the inhibition at 64 µg/mL was determined as 6.1 ± 1.68%.

Regarding `O=C1c2ccccc2C(=O)c2c1ccc(O)c2O` [Alizarin], the inhibition at 64 µg/mL was found to be 56.6 ± 5.28%.

As for `C[C@@H]1CC[C@H]2[C@@H](C)C(=O)O[C@@H]3O[C@@]4(C)CC[C@@H]1[C@]32OO4` [Artemisinin], the inhibition at 64 µg/mL amounted to 4.9 ± 4.21%.

For the compound `COc1ccc(-c2oc3c(OC)c(O)cc(O)c3c(=O)c2O)cc1` [Prudomestin], the inhibition at 64 µg/mL turned out to be 54.2 ± 4.67%.

For `C=C(C)[C@@H]1CCC(C)=C[C@H]1c1c(O)cc(CCCCC)cc1O` [cannabidiol], the inhibition at 64 µg/mL stood at 6.8 ± 2.41%.

In the case of `O=C(O)[C@H]1O[C@@H](Oc2cc(O)c3c(=O)cc(-c4ccc(O)c(O)c4)oc3c2)[C@H](O)[C@@H](O)[C@@H]1O` [luteolin-7-glucuronide], the inhibition at 64 µg/mL was 47.1 ± 3.25%.

`O=C1C[C@@H](c2ccc(O)cc2)Oc2cc(O)cc(O)c21` [Naringenin]: the inhibition at 64 µg/mL was 8.2 ± 0.24%.

For the compound `COc1ccc(-c2cc(=O)c3c(O)cc(O[C@@H]4O[C@H](CO[C@@H]5O[C@@H](C)[C@H](O)[C@@H](O)[C@H]5O)[C@@H](O)[C@H](O)[C@H]4O)cc3o2)cc1` [Buddleoside], the inhibition at 64 µg/mL turned out to be 46.2 ± 1.25%.

For the compound `C/C=C(/C)C(=O)O[C@H]1[C@@H](OC(C)=O)c2c(ccc3ccc(=O)oc23)OC1(C)C` [Praeruptorin A], the inhibition at 64 µg/mL stood at 37.8 ± 3.15%.

As for `COc1ccc(-c2cc(=O)c3c(OC)c(OC)c(OC)c(OC)c3o2)cc1` [Tangeretin], the inhibition at 64 µg/mL is 41.2 ± 1.53%.

Take `O=C(/C=C/c1ccc(O)cc1)OC[C@H]1O[C@@H](Oc2c(-c3ccc(O)cc3)oc3cc(O)cc(O)c3c2=O)[C@H](O)[C@@H](O)[C@@H]1O` [Tiliroside]: the inhibition at 64 µg/mL amounted to 3.6 ± 0.17%.

Regarding `Cc1coc2c1C(=O)C(=O)c1c-2ccc2c(C)cccc12` [Tanshinone I], the inhibition at 64 µg/mL is 12.3 ± 1.41%.

As for `C[C@H]1CC[C@@]2(OC1)O[C@H]1C[C@H]3[C@@H]4CC[C@@H]5C[C@@H](O)CC[C@]5(C)[C@H]4CC[C@]3(C)[C@H]1[C@@H]2C` [Sarsasapogenin], the inhibition at 64 µg/mL turned out to be 7.8 ± 0.96%.

For the compound `COc1ccc(-c2cc(=O)c3c(O)c(OC)c(O[C@@H]4O[C@H](CO[C@@H]5O[C@@H](C)[C@H](O)[C@@H](O)[C@H]5O)[C@@H](O)[C@H](O)[C@H]4O)cc3o2)cc1` [Pectolinarin], the inhibition at 64 µg/mL was determined as 28.3 ± 1.37%.

Turning to `O=Cc1ccc(O[C@@H]2O[C@H](CO)[C@@H](O)[C@@H](O)[C@H]2O)cc1` [Helicid], the inhibition at 64 µg/mL worked out at 13.9 ± 3.22%.

With `CC(=O)O[C@H]1C(=O)[C@@]2(C)[C@H]([C@H](OC(=O)c3ccccc3)[C@]3(O)C[C@H](O)C(C)=C1C3(C)C)[C@]1(OC(C)=O)CO[C@@H]1C[C@@H]2O` [Baccatin III], the inhibition at 64 µg/mL came to 7.2 ± 3.26%.

In the case of `C[C@@H]1O[C@@H](O[C@H]2[C@H](Oc3cc(O)c(C(=O)CCc4ccc(O)cc4)c(O)c3)O[C@H](CO)[C@@H](O)[C@@H]2O)[C@H](O)[C@H](O)[C@H]1O` [Naringin dihydrochalcone], the inhibition at 64 µg/mL was determined as 20.6 ± 0.51%.

For `COc1ccc(C(=O)O)cc1O` [Isovanillic acid], the inhibition at 64 µg/mL came out at 13.7 ± 2.43%.

Consider `O=C(/C=C/c1ccc(O)c(O)c1)O[C@H]1[C@H](O)C[C@](O)(C(=O)O)C[C@H]1O` [Cryptochlorogenic acid], for which the inhibition at 64 µg/mL is 13.7 ± 3.15%.

`COc1ccc(-c2coc3cc(O[C@@H]4O[C@H](CO)[C@@H](O)[C@H](O)[C@H]4O)ccc3c2=O)cc1O` [Calycosin-7-glucoside]: the inhibition at 64 µg/mL was 4.2 ± 0.84%.

Take `COc1cc(OC)c(CCC(=O)c2ccc(O)cc2)c(OC)c1` [Loureirin B]: the inhibition at 64 µg/mL is 29.8 ± 2.24%.

For `COc1ccc(-c2oc3c(CC=C(C)C)c(O[C@@H]4O[C@H](CO)[C@@H](O)[C@H](O)[C@H]4O)cc(O)c3c(=O)c2O[C@@H]2O[C@@H](C)[C@H](O)[C@@H](O[C@@H]3O[C@H](CO)[C@@H](O)[C@H](O)[C@H]3O)[C@H]2O)cc1` [Epimedin A1], the inhibition at 64 µg/mL amounted to 26.7 ± 0.81%.

In the case of `O=c1cc(-c2ccc(O)cc2)oc2c([C@@H]3O[C@H](CO)[C@@H](O)[C@H](O)[C@H]3O)c(O)c([C@@H]3O[C@H](CO)[C@@H](O)[C@H](O)[C@H]3O)c(O)c12` [Vicenin-2], the inhibition at 64 µg/mL amounted to 48.2 ± 2.26%.

Regarding `O=C(CCCCc1ccc2c(c1)OCO2)N1CCCCC1` [Tetrahydropiperine], the inhibition at 64 µg/mL is 24.5 ± 3.67%.

For `O=C(O)[C@H]1O[C@@H](Oc2cc3oc(-c4ccccc4)cc(=O)c3c(O)c2O)[C@H](O)[C@@H](O)[C@@H]1O` [Baicalin], the inhibition at 64 µg/mL came to 27.3 ± 0.55%.

For the compound `O=c1cc(-c2ccc(O)c(O)c2)oc2c([C@@H]3O[C@H](CO)[C@@H](O)[C@H](O)[C@H]3O)c(O)cc(O)c12` [Orientin], the inhibition at 64 µg/mL was found to be 61.4 ± 1.24%.

Regarding `CC(C)c1ccc2c(c1O)CC[C@H]1C3=C(CC[C@]21C)C(=O)OC3` [Triptophenolide], the inhibition at 64 µg/mL stood at 20.8 ± 0.61%.

Consider `COc1ccc(-c2coc3cc(O)cc(O)c3c2=O)cc1` [Biochanin A], for which the inhibition at 64 µg/mL turned out to be 28.2 ± 1.38%.

Take `O=c1ccc2cc(O)c(O)cc2o1` [6,7-Dihydroxycoumarin]: the inhibition at 64 µg/mL worked out at 19.6 ± 3.54%.

`COc1cc2ccc(=O)oc2c(O)c1O` [Fraxetin]: the inhibition at 64 µg/mL was found to be 50.3 ± 4.62%.

On to `O=C1C([C@@H]2O[C@H](CO)[C@@H](O)[C@H](O)[C@H]2O)=C(O)/C(=C(O)/C=C/c2ccc(O)cc2)C(=O)C1(O)[C@@H]1O[C@H](CO)[C@@H](O)[C@H](O)[C@H]1O` (some centres unmarked) [Hydroxysafflor yellow A], for which the inhibition at 64 µg/mL stood at 52.4 ± 4.23%.

For `O=C1O[C@H]2[C@@H]3OC(=O)c4cc(O)c(O)c(O)c4-c4c(O)c(O)c5oc(=O)c6c(c(O)c(O)c7oc(=O)c4c5c76)-c4c(cc(O)c(O)c4O)C(=O)OC[C@H]3OC(O)[C@@H]2OC(=O)c2cc(O)c(O)c(O)c2-c2c1cc(O)c(O)c2O` (mixture of isomers) [Punicalagin], the inhibition at 64 µg/mL turned out to be 28.3 ± 3.67%.

As to `COc1cc(O)c2c(=O)cc(-c3ccccc3)oc2c1` [Tectochrysin], the inhibition at 64 µg/mL is 7.1 ± 0.26%.

Regarding `CC1=C[C@H](O)CC(C)(C)[C@H]1/C=C/C(C)=C/C=C/C(C)=C/C=C/C=C(C)/C=C/C=C(C)/C=C/C1=C(C)C[C@@H](O)CC1(C)C` [Lutein], the inhibition at 64 µg/mL came out at 1.4 ± 0.52%.

On to `O=C(CCc1ccc(O)cc1)c1c(O)cc(O)cc1O[C@@H]1O[C@H](CO)[C@@H](O)[C@H](O)[C@H]1O` [Phlorizin], for which the inhibition at 64 µg/mL worked out at 5.3 ± 0.71%.

As for `O=c1cc(-c2ccc(O)cc2)oc2cc(O)cc(O)c12` [Apigenin], the inhibition at 64 µg/mL was 13.6 ± 0.52%.

On to `COc1ccc(/C=C/C(=O)c2c(O)cc(OC)cc2OC)cc1` [Flavokawain A], for which the inhibition at 64 µg/mL is 2.6 ± 1.17%.
